Source: ChEMBL document CHEMBL3885881, “DrugMatrix”

Species: Rattus norvegicus
Experiment: DrugMatrix - Regimen: Daily Repeat
Type: toxicity, organism-based, Sprague-Dawley
Set-up: regimen Daily Repeat, gender Male, age 6-8 weeks
Conditions: in vivo, po, route oral GAVAGE, vehicle 100 % WATER; for ABSOLUTE BASOPHIL / ABSOLUTE EOSINOPHIL / ABSOLUTE LYMPHOCYTE / ABSOLUTE MONOCYTE / ABSOLUTE SEGMENTED NEUTROPHIL / BASOPHIL / EOSINOPHIL / ERYTHROCYTE COUNT / HEMATOCRIT / HEMOGLOBIN / LEUKOCYTE COUNT / LYMPHOCYTE / MEAN CORPUSCULAR HEMOGLOBIN / MEAN CORPUSCULAR HEMOGLOBIN CONCENTRATION / MEAN CORPUSCULAR VOLUME / MONOCYTE / NEUTROPHIL / NUCLEATED RED BLOOD CELLS / PLATELET COUNT: tissue Blood; for ALANINE AMINOTRANSFERASE / ALBUMIN / ALKALINE PHOSPHATASE / ASPARTATE AMINOTRANSFERASE / BLOOD UREA NITROGEN / CARBON DIOXIDE / CHLORIDE / CHOLESTEROL / CREATINE PHOSPHOKINASE / CREATININE / GLUCOSE / LACTATE DEHYDROGENASE / LIPASE / PHOSPHORUS / POTASSIUM / SODIUM / TOTAL BILIRUBIN / TOTAL PROTEIN / URIC ACID: tissue Plasma
[1] = 0 mg/kg, 72 h, dose level Control, time 3 day
[2] = 0 mg/kg, 120 h, dose level Control, time 5 day
[3] = 20 mg/kg, 72 h, dose level Low, time 3 day

CCCC(C)C1(CC)C(=O)NC(=O)NC1=O (centres undefined) [PENTOBARBITAL]
ABSOLUTE BASOPHIL [1]: 0 CELLS/uL | ABSOLUTE EOSINOPHIL [1]: 32.5 CELLS/uL | ABSOLUTE LYMPHOCYTE [1]: 9305.83 CELLS/uL | ABSOLUTE MONOCYTE [1]: 43.83 CELLS/uL | ABSOLUTE SEGMENTED NEUTROPHIL [1]: 817.83 CELLS/uL | BASOPHIL [1]: 0% | EOSINOPHIL [1]: 0.33% | ERYTHROCYTE COUNT [1]: 5.38 x10E6/uL | HEMATOCRIT [1]: 33.63% | HEMOGLOBIN [1]: 13.17 G/DL | LEUKOCYTE COUNT [1]: 10.2 x10E3/uL | LYMPHOCYTE [1]: 91.17% | MEAN CORPUSCULAR HEMOGLOBIN [1]: 24.5 pg | MEAN CORPUSCULAR HEMOGLOBIN CONCENTRATION [1]: 39.13 G/DL | MEAN CORPUSCULAR VOLUME [1]: 62.53 fL | MONOCYTE [1]: 0.5% | NEUTROPHIL [1]: 8% | NUCLEATED RED BLOOD CELLS [1]: 0.17 /100WBC | PLATELET COUNT [1]: 858 x10E3/uL | ALANINE AMINOTRANSFERASE [1]: 55.67 u/L | ALBUMIN [1]: 4.07 G/DL | ALKALINE PHOSPHATASE [1]: 337 u/L | ASPARTATE AMINOTRANSFERASE [1]: 84 u/L | BLOOD UREA NITROGEN [1]: 13.17 mg/dL | CARBON DIOXIDE [1]: 34.17 mmol/L | CHLORIDE [1]: 99.33 MEQ/L | CHOLESTEROL [1]: 78.83 mg/dL | CREATINE PHOSPHOKINASE [1]: 576.83 u/L | CREATININE [1]: 0.17 mg/dL | GLUCOSE [1]: 152.67 mg/dL | LACTATE DEHYDROGENASE [1]: 147.83 u/L | LIPASE [1]: 9.5 u/L | PHOSPHORUS [1]: 10.78 mg/dL | POTASSIUM [1]: 6.34 MEQ/L | SODIUM [1]: 144.12 MEQ/L | TOTAL BILIRUBIN [1]: 0.18 mg/dL | TOTAL PROTEIN [1]: 6.08 G/DL | URIC ACID [1]: 0.65 mg/dL | ABSOLUTE BASOPHIL [2]: 0 CELLS/uL | ABSOLUTE EOSINOPHIL [2]: 31.17 CELLS/uL | ABSOLUTE LYMPHOCYTE [2]: 7918.33 CELLS/uL | ABSOLUTE MONOCYTE [2]: 58.33 CELLS/uL | ABSOLUTE SEGMENTED NEUTROPHIL [2]: 725.5 CELLS/uL | BASOPHIL [2]: 0% | EOSINOPHIL [2]: 0.33% | ERYTHROCYTE COUNT [2]: 5.32 x10E6/uL | HEMATOCRIT [2]: 33.53% | HEMOGLOBIN [2]: 13.17 G/DL | LEUKOCYTE COUNT [2]: 8.73 x10E3/uL | LYMPHOCYTE [2]: 90.33% | MEAN CORPUSCULAR HEMOGLOBIN [2]: 24.82 pg | MEAN CORPUSCULAR HEMOGLOBIN CONCENTRATION [2]: 39.33 G/DL | MEAN CORPUSCULAR VOLUME [2]: 63.12 fL | MONOCYTE [2]: 0.67% | NEUTROPHIL [2]: 8.67% | NUCLEATED RED BLOOD CELLS [2]: 0 /100WBC | PLATELET COUNT [2]: 1144.83 x10E3/uL | ALANINE AMINOTRANSFERASE [2]: 60.5 u/L | ALBUMIN [2]: 3.97 G/DL | ALKALINE PHOSPHATASE [2]: 343.17 u/L | ASPARTATE AMINOTRANSFERASE [2]: 80.83 u/L | BLOOD UREA NITROGEN [2]: 15 mg/dL | CARBON DIOXIDE [2]: 31 mmol/L | CHLORIDE [2]: 99.75 MEQ/L | CHOLESTEROL [2]: 71.5 mg/dL | CREATINE PHOSPHOKINASE [2]: 237.17 u/L | CREATININE [2]: 0.17 mg/dL | GLUCOSE [2]: 137 mg/dL | LACTATE DEHYDROGENASE [2]: 146.17 u/L | LIPASE [2]: 11.5 u/L | PHOSPHORUS [2]: 10.13 mg/dL | POTASSIUM [2]: 6 MEQ/L | SODIUM [2]: 145 MEQ/L | TOTAL BILIRUBIN [2]: 0.13 mg/dL | TOTAL PROTEIN [2]: 5.82 G/DL | URIC ACID [2]: 0.62 mg/dL | ABSOLUTE BASOPHIL [3]: 0 CELLS/uL | ABSOLUTE EOSINOPHIL [3]: 0 CELLS/uL | ABSOLUTE LYMPHOCYTE [3]: 9302.33 CELLS/uL | ABSOLUTE MONOCYTE [3]: 108 CELLS/uL | ABSOLUTE SEGMENTED NEUTROPHIL [3]: 989.67 CELLS/uL | BASOPHIL [3]: 0% | EOSINOPHIL [3]: 0% | ERYTHROCYTE COUNT [3]: 5.3 x10E6/uL | HEMATOCRIT [3]: 32.83% | HEMOGLOBIN [3]: 12.6 G/DL | LEUKOCYTE COUNT [3]: 10.4 x10E3/uL | LYMPHOCYTE [3]: 88.33% | MEAN CORPUSCULAR HEMOGLOBIN [3]: 23.77 pg | MEAN CORPUSCULAR HEMOGLOBIN CONCENTRATION [3]: 38.37 G/DL | MEAN CORPUSCULAR VOLUME [3]: 61.97 fL | MONOCYTE [3]: 1.33% | NEUTROPHIL [3]: 10.33% | NUCLEATED RED BLOOD CELLS [3]: 0 /100WBC | PLATELET COUNT [3]: 1066.67 x10E3/uL | ALANINE AMINOTRANSFERASE [3]: 57.67 u/L | ALBUMIN [3]: 3.9 G/DL | ALKALINE PHOSPHATASE [3]: 334.33 u/L | ASPARTATE AMINOTRANSFERASE [3]: 90.67 u/L | BLOOD UREA NITROGEN [3]: 13.67 mg/dL | CARBON DIOXIDE [3]: 35.33 mmol/L | CHLORIDE [3]: 100 MEQ/L | CHOLESTEROL [3]: 80.67 mg/dL | CREATINE PHOSPHOKINASE [3]: 384.67 u/L | CREATININE [3]: 0.14 mg/dL | GLUCOSE [3]: 140 mg/dL | LACTATE DEHYDROGENASE [3]: 137 u/L | LIPASE [3]: 9 u/L | PHOSPHORUS [3]: 11.23 mg/dL | POTASSIUM [3]: 5.89 MEQ/L | SODIUM [3]: 147.3 MEQ/L | TOTAL BILIRUBIN [3]: 0.13 mg/dL | TOTAL PROTEIN [3]: 5.67 G/DL | URIC ACID [3]: 0.7 mg/dL
